Results taken from article PMC12185792, “Guanylate cyclase activity in moss: revisiting the role of ERECTA-like receptors” (Physiology and Molecular Biology of Plants, 2025).

T1: PpERL1 (Physcomitrium patens ERECTA-like receptor 1) (Physcomitrium patens, UniProt A0A2K1L2N0)
T1 construct: gene LOC112274326; intracellular fragment 658-1018 (kinase domain with embedded GC motif 877-893) of 1018 residues; N-terminal GST tag kept (pGEX-6P-2), about 66 kDa; E. coli BL21(DE3)pLysS
T1 sequence (A0A2K1L2N0 658-1018): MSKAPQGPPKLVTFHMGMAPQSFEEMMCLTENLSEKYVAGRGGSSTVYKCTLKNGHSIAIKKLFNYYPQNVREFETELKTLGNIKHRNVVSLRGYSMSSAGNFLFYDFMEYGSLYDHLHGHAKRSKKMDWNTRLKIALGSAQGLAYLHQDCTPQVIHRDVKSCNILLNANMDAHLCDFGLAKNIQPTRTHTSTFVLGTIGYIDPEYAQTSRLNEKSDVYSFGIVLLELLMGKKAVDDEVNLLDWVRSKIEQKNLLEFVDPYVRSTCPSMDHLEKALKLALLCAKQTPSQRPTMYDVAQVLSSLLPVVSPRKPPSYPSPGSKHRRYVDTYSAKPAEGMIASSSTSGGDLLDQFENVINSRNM


How the values were obtained:
[1] = target: T2, PpERL1 (Physcomitrium patens ERECTA-like receptor 1) (Physcomitrium patens, UniProt A0A2K1L2N0, K890N); assay: Kinase-Glo Plus luminescent kinase assay, histone type III; format: biochemical; conditions: 10 μM ATP, 5 mM MgCl2, 1 mM DTT, Tris-HCl pH 7.5, 30 °C; inhibition of kinase domain, possibly via GC domain
T2 construct: gene LOC112274326; intracellular fragment 658-1018 (kinase domain with embedded GC motif 877-893) of 1018 residues; N-terminal GST tag kept (pGEX-6P-2), about 66 kDa; E. coli BL21(DE3)pLysS
T2 sequence (A0A2K1L2N0 entry or part of it K890N): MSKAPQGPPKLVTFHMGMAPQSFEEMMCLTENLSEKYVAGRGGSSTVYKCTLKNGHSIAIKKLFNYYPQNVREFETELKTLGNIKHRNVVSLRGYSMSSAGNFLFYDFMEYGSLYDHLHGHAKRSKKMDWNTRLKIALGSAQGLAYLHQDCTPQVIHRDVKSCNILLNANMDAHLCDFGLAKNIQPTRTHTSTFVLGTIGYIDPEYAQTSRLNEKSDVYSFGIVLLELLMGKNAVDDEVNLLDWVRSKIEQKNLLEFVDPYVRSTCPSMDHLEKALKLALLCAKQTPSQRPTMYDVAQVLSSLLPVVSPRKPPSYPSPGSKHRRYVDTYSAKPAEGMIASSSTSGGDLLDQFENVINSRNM

[2] = target: T1, PpERL1 (Physcomitrium patens ERECTA-like receptor 1); assay: as above; format: biochemical; conditions: 10 μM ATP, 5 mM MgCl2, 1 mM DTT, Tris-HCl pH 7.5, 30 °C; inhibition of kinase domain, possibly via GC domain
[3] = substrate: Nc1nc2c(ncn2[C@@H]2O[C@H](COP(=O)(O)OP(=O)(O)OP(=O)(O)O)[C@@H](O)[C@H]2O)c(=O)[nH]1; assay: guanylate cyclase assay, cGMP by LC-MS/MS; format: biochemical, Physcomitrium patens; conditions: GTP 0.1-3 mM, 5 mM MgCl2, 2.5 mM MnCl2, 1 mM DTT, Tris-HCl pH 7.5, 30 °C, no CaCl2

| Molecule | relative kinase activity at 1 mM GTP [1] | relative kinase activity at 1 mM GTP [2] | Km [3] |
| --- | --- | --- | --- |
| Nc1nc2c(ncn2[C@@H]2O[C@H](COP(=O)(O)OP(=O)(O)OP(=O)(O)O)[C@@H](O)[C@H]2O)c(=O)[nH]1 [GTP] | the presence of GTP resulted in a slight decrease in kinase activity | adding GTP to the reaction mixture led to a significant decrease in kinase activity | – |
| PpERL1 (Physcomitrium patens ERECTA-like receptor 1) (Physcomitrium patens) (protein, intracellular fragment 658-1018 (kinase domain with embedded GC motif 877-893) of 1018 residues; N-terminal GST tag kept (pGEX-6P-2), about 66 kDa; E. coli BL21(DE3)pLysS) MSKAPQGPPKLVTFHMGMAPQSFEEMMCLTENLSEKYVAGRGGSSTVYKCTLKNGHSIAIKKLFNYYPQNVREFETELKTLGNIKHRNVVSLRGYSMSSAGNFLFYDFMEYGSLYDHLHGHAKRSKKMDWNTRLKIALGSAQGLAYLHQDCTPQVIHRDVKSCNILLNANMDAHLCDFGLAKNIQPTRTHTSTFVLGTIGYIDPEYAQTSRLNEKSDVYSFGIVLLELLMGKKAVDDEVNLLDWVRSKIEQKNLLEFVDPYVRSTCPSMDHLEKALKLALLCAKQTPSQRPTMYDVAQVLSSLLPVVSPRKPPSYPSPGSKHRRYVDTYSAKPAEGMIASSSTSGGDLLDQFENVINSRNM | – | – | 609.8 µM |
